Common to all, as to test: MIC, standard broth micro-dilution assay
What all share (type): cell-based
Background: Broth dilution looks for growth in wells or tubes with falling amounts of substance.

The test system of one test is Entercoccus faecalis 276. How it is done:
(§1) The formula I compounds have in vitro and in vivo activity against Gram-positive pathogenic bacteria. The MIC's were determined using a standard broth micro-dilution assay.

The test system of test [1] is Entercoccus faecalis 2041. How it is done: as §1
Test [2] concerns Entercoccus gallinarum 245. How it is done:
as §1

Converted amounts (≈) assume the structure as drawn.

The MIC is the lowest concentration that inhibits growth of the organism. With `CNC(CC(C)C)C(=O)NC1C(=O)NC(CC(N)=O)C(=O)NC2C(=O)NC3C(=O)NC(C(=O)NC(C(=O)O)c4cc(O)cc(O)c4-c4cc3ccc4O)C(OC3CC(C)(N)C(O)C(C)O3)c3ccc(c(Cl)c3)Oc3cc2cc(c3OC2OC(CO)C(O)C(O)C2OC2CC(C)(NCc3ccc(Oc4ccc(Cl)c(Cl)c4)cc3)C(O)C(C)O2)Oc2ccc(cc2Cl)C1O` (stereo not drawn) [Compound 81, 4-[3,4-dichlorophenoxy]benzyl], the MIC was ≤ 0.06 µg/mL with Entercoccus faecalis 276, ≤ 0.06 µg/mL in test [1] and 0.25 µg/mL (≈ 0.136 µM) in test [2].
As to `CNC(CC(C)C)C(=O)NC1C(=O)NC(CC(N)=O)C(=O)NC2C(=O)NC3C(=O)NC(C(=O)NC(C(=O)O)c4cc(O)cc(O)c4-c4cc3ccc4O)C(OC3CC(C)(N)C(O)C(C)O3)c3ccc(c(Cl)c3)Oc3cc2cc(c3OC2OC(CO)C(O)C(O)C2OC2CC(C)(NCc3cccc(Oc4ccc(Cl)cc4)c3)C(O)C(C)O2)Oc2ccc(cc2Cl)C1O` (stereo not drawn) [Compound 86], the MIC is ≤ 0.06 µg/mL in the test on Entercoccus faecalis 276, ≤ 0.06 µg/mL in test [1] and 1 µg/mL (≈ 0.553 µM) in test [2].
Regarding `CNC(CC(C)C)C(=O)NC1C(=O)NC(CC(N)=O)C(=O)NC2C(=O)NC3C(=O)NC(C(=O)NC(C(=O)O)c4cc(O)cc(O)c4-c4cc3ccc4O)C(OC3CC(C)(N)C(O)C(C)O3)c3ccc(c(Cl)c3)Oc3cc2cc(c3OC2OC(CO)C(O)C(O)C2OC2CC(C)(NCc3ccc(Oc4cccc(Cl)c4)c([N+](=O)[O-])c3)C(O)C(C)O2)Oc2ccc(cc2Cl)C1O` (stereo not drawn) [Compound 87, 4-[3-chlorophenoxy]-3-nitrobenzyl], the MIC against Entercoccus faecalis 276 was ≤ 0.06 µg/mL; in test [1], ≤ 0.06 µg/mL; in test [2], 2 µg/mL (≈ 1.08 µM).
As to `CNC(CC(C)C)C(=O)NC1C(=O)NC(CC(N)=O)C(=O)NC2C(=O)NC3C(=O)NC(C(=O)NC(C(=O)O)c4cc(O)cc(O)c4-c4cc3ccc4O)C(OC3CC(C)(N)C(O)C(C)O3)c3ccc(c(Cl)c3)Oc3cc2cc(c3OC2OC(CO)C(O)C(O)C2OC2CC(C)(NCc3ccc(Oc4ccccc4Cl)c([N+](=O)[O-])c3)C(O)C(C)O2)Oc2ccc(cc2Cl)C1O` (stereo not drawn) [Compound 88, 4-[2-chlorophenoxy]-3-nitrobenzyl], the MIC (against Entercoccus faecalis 276; in test [1]; in test [2]) was ≤ 0.06 µg/mL in each case.
Consider `CNC(CC(C)C)C(=O)NC1C(=O)NC(CC(N)=O)C(=O)NC2C(=O)NC3C(=O)NC(C(=O)NC(C(=O)O)c4cc(O)cc(O)c4-c4cc3ccc4O)C(OC3CC(C)(N)C(O)C(C)O3)c3ccc(c(Cl)c3)Oc3cc2cc(c3OC2OC(CO)C(O)C(O)C2OC2CC(C)(NCc3cc(C)cc(C)c3)C(O)C(C)O2)Oc2ccc(cc2Cl)C1O` (stereo not drawn) [Compound 89, 3,5-dimethylbenzyl], for which the MIC (with Entercoccus faecalis 276; in test [1]; in test [2]) was ≤ 0.06 µg/mL in each case.
In the case of `CN[C@H](CC(C)C)C(=O)N[C@H]1C(=O)N[C@@H](CC(N)=O)C(=O)N[C@H]2C(=O)N[C@H]3C(=O)N[C@H](C(=O)N[C@H](C(=O)O)c4cc(O)cc(O)c4-c4cc3ccc4O)[C@H](O[C@H]3C[C@](C)(N)[C@@H](O)[C@H](C)O3)c3ccc(c(Cl)c3)Oc3cc2cc(c3O[C@@H]2O[C@H](CO)[C@@H](O)[C@H](O)[C@H]2O[C@H]2C[C@](C)(NCc3cccc(-c4ccccc4)c3)[C@@H](O)[C@H](C)O2)Oc2ccc(cc2Cl)[C@H]1O` [Compound 91, 3-phenylbenzyl], the MIC against Entercoccus faecalis 276 is ≤ 0.06 µg/mL; in test [1], ≤ 0.06 µg/mL; in test [2], 2 µg/mL (≈ 1.14 µM).
As to `CN[C@H](CC(C)C)C(=O)N[C@H]1C(=O)N[C@@H](CC(N)=O)C(=O)N[C@H]2C(=O)N[C@H]3C(=O)N[C@H](C(=O)N[C@H](C(=O)O)c4cc(O)cc(O)c4-c4cc3ccc4O)[C@H](O[C@H]3C[C@](C)(N)[C@@H](O)[C@H](C)O3)c3ccc(c(Cl)c3)Oc3cc2cc(c3O[C@@H]2O[C@H](CO)[C@@H](O)[C@H](O)[C@H]2O[C@H]2C[C@](C)(NCc3ccc(Oc4ccc(C(C)(C)C)cc4)cc3)[C@@H](O)[C@H](C)O2)Oc2ccc(cc2Cl)[C@H]1O` [Compound 96, 4-[4-t-butylphenoxy]benzyl], the MIC in the test with Entercoccus faecalis 276 was determined as 0.5 µg/mL (≈ 0.273 µM); in test [1], 1 µg/mL (≈ 0.546 µM); in test [2], 2 µg/mL (≈ 1.09 µM).
Consider `CN[C@H](CC(C)C)C(=O)N[C@H]1C(=O)N[C@@H](CC(N)=O)C(=O)N[C@H]2C(=O)N[C@H]3C(=O)N[C@H](C(=O)N[C@H](C(=O)O)c4cc(O)cc(O)c4-c4cc3ccc4O)[C@H](O[C@H]3C[C@](C)(N)[C@@H](O)[C@H](C)O3)c3ccc(c(Cl)c3)Oc3cc2cc(c3O[C@@H]2O[C@H](CO)[C@@H](O)[C@H](O)[C@H]2O[C@H]2C[C@](C)(NCc3ccc(-c4ccc(C)cc4)cc3)[C@@H](O)[C@H](C)O2)Oc2ccc(cc2Cl)[C@H]1O` [Compound 97, 4-[4-methylphenyl]benzyl], for which the MIC in the test with Entercoccus faecalis 276 is ≤ 0.06 µg/mL; in test [1] it was ≤ 0.06 µg/mL; in test [2] it was 2 µg/mL (≈ 1.13 µM).
On to `CNC(CC(C)C)C(=O)NC1C(=O)NC(CC(N)=O)C(=O)NC2C(=O)NC3C(=O)NC(C(=O)NC(C(=O)O)c4cc(O)cc(O)c4-c4cc3ccc4O)C(OC3CC(C)(N)C(O)C(C)O3)c3ccc(c(Cl)c3)Oc3cc2cc(c3OC2OC(CO)C(O)C(O)C2OC2CC(C)(NCc3ccc(-c4ccccc4[N+](=O)[O-])cc3)C(O)C(C)O2)Oc2ccc(cc2Cl)C1O` (stereo not drawn) [Compound 102, 4-[2-nitrophenyl]benzyl], for which the MIC was 0.25 µg/mL (≈ 0.139 µM) against Entercoccus faecalis 276, ≤ 0.06 µg/mL in test [1] and 4 µg/mL (≈ 2.22 µM) in test [2].
On the same counts, the results for `CNC(CC(C)C)C(=O)NC1C(=O)NC(CC(N)=O)C(=O)NC2C(=O)NC3C(=O)NC(C(=O)NC(C(=O)O)c4cc(O)cc(O)c4-c4cc3ccc4O)C(OC3CC(C)(N)C(O)C(C)O3)c3ccc(c(Cl)c3)Oc3cc2cc(c3OC2OC(CO)C(O)C(O)C2OC2CC(C)(NCc3ccc4c(c3O)Cc3ccccc3-4)C(O)C(C)O2)Oc2ccc(cc2Cl)C1O` (stereo not drawn) [Compound 103, 2-[1-hydroxy]fluorenylmethyl] are 0.25 µg/mL (≈ 0.14 µM), ≤ 0.06 µg/mL and 8 µg/mL (≈ 4.48 µM).
For the compound `CNC(CC(C)C)C(=O)NC1C(=O)NC(CC(N)=O)C(=O)NC2C(=O)NC3C(=O)NC(C(=O)NC(C(=O)O)c4cc(O)cc(O)c4-c4cc3ccc4O)C(OC3CC(C)(N)C(O)C(C)O3)c3ccc(c(Cl)c3)Oc3cc2cc(c3OC2OC(CO)C(O)C(O)C2OC2CC(C)(NCc3ccc(Cc4ccccc4)c(OC)c3)C(O)C(C)O2)Oc2ccc(cc2Cl)C1O` (stereo not drawn) [Compound 104, 4-benzyl-3-methoxybenzyl], the values for the MIC (in the test on Entercoccus faecalis 276; in test [1]; in test [2]) were ≤ 0.06 µg/mL, ≤ 0.06 µg/mL and 2 µg/mL (≈ 1.11 µM), respectively.
Consider `CCCc1ccc(-c2ccc(CNC3(C)CC(OC4C(Oc5c6cc7cc5Oc5ccc(cc5Cl)C(OC5CC(C)(N)C(O)C(C)O5)C5NC(=O)C(NC(=O)C7NC(=O)C(CC(N)=O)NC(=O)C(NC(=O)C(CC(C)C)NC)C(O)c7ccc(c(Cl)c7)O6)c6ccc(O)c(c6)-c6c(O)cc(O)cc6C(C(=O)O)NC5=O)OC(CO)C(O)C4O)OC(C)C3O)cc2)cc1` (stereo not drawn) [Compound 107, 4-[4-propylphenyl]benzyl], for which the MIC turned out to be 1 µg/mL (≈ 0.555 µM) with Entercoccus faecalis 276, 0.5 µg/mL (≈ 0.278 µM) in test [1] and 2 µg/mL (≈ 1.11 µM) in test [2].
In the case of `CNC(CC(C)C)C(=O)NC1C(=O)NC(CC(N)=O)C(=O)NC2C(=O)NC3C(=O)NC(C(=O)NC(C(=O)O)c4cc(O)cc(O)c4-c4cc3ccc4O)C(OC3CC(C)(N)C(O)C(C)O3)c3ccc(c(Cl)c3)Oc3cc2cc(c3OC2OC(CO)C(O)C(O)C2OC2CC(C)(NCc3ccc(OC(F)(F)C(F)F)cc3)C(O)C(C)O2)Oc2ccc(cc2Cl)C1O` (stereo not drawn) [Compound 121, 4-[1,1,2,2-tetrafluoroethoxy]benzyl], the MIC with Entercoccus faecalis 276 was ≤ 0.06 µg/mL; in test [1] it was ≤ 0.06 µg/mL; in test [2], 2 µg/mL (≈ 1.11 µM).
On to `CNC(CC(C)C)C(=O)NC1C(=O)NC(CC(N)=O)C(=O)NC2C(=O)NC3C(=O)NC(C(=O)NC(C(=O)O)c4cc(O)cc(O)c4-c4cc3ccc4O)C(OC3CC(C)(N)C(O)C(C)O3)c3ccc(c(Cl)c3)Oc3cc2cc(c3OC2OC(CO)C(O)C(O)C2OC2CC(C)(NCc3cccc(OCC4CCCCC4)c3)C(O)C(C)O2)Oc2ccc(cc2Cl)C1O` (stereo not drawn) [Compound 123, 3-[cyclohexylmethoxy]benzyl], for which the MIC was 0.25 µg/mL (≈ 0.139 µM) against Entercoccus faecalis 276, ≤ 0.06 µg/mL in test [1] and 1 µg/mL (≈ 0.557 µM) in test [2].
The corresponding values for `CNC(CC(C)C)C(=O)NC1C(=O)NC(CC(N)=O)C(=O)NC2C(=O)NC3C(=O)NC(C(=O)NC(C(=O)O)c4cc(O)cc(O)c4-c4cc3ccc4O)C(OC3CC(C)(N)C(O)C(C)O3)c3ccc(c(Cl)c3)Oc3cc2cc(c3OC2OC(CO)C(O)C(O)C2OC2CC(C)(NCc3cccc(OCc4ccc5ccccc5n4)c3)C(O)C(C)O2)Oc2ccc(cc2Cl)C1O` (stereo not drawn) [Compound 125, 3-[2-quinoylmethoxy]benzyl] are 2 µg/mL (≈ 1.09 µM), ≤ 0.06 µg/mL and 12 µg/mL (≈ 6.52 µM).
On the same counts, the results for `CCOC(c1ccccc1)c1ccc(CNC2(C)CC(OC3C(Oc4c5cc6cc4Oc4ccc(cc4Cl)C(OC4CC(C)(N)C(O)C(C)O4)C4NC(=O)C(NC(=O)C6NC(=O)C(CC(N)=O)NC(=O)C(NC(=O)C(CC(C)C)NC)C(O)c6ccc(c(Cl)c6)O5)c5ccc(O)c(c5)-c5c(O)cc(O)cc5C(C(=O)O)NC4=O)OC(CO)C(O)C3O)OC(C)C2O)cc1` (stereo not drawn) [Compound 126] are 1 µg/mL (≈ 0.55 µM), ≤ 0.06 µg/mL and 2 µg/mL (≈ 1.1 µM).
In the case of `CNC(CC(C)C)C(=O)NC1C(=O)NC(CC(N)=O)C(=O)NC2C(=O)NC3C(=O)NC(C(=O)NC(C(=O)O)c4cc(O)cc(O)c4-c4cc3ccc4O)C(OC3CC(C)(N)C(O)C(C)O3)c3ccc(c(Cl)c3)Oc3cc2cc(c3OC2OC(CO)C(O)C(O)C2OC2CC(C)(NCc3ccc(OCCC4CCCCC4)cc3)C(O)C(C)O2)Oc2ccc(cc2Cl)C1O` (stereo not drawn) [Compound 127, 4-[cyclohexylethoxy]benzyl], the MIC with Entercoccus faecalis 276 was ≤ 0.06 µg/mL; in test [1] it was ≤ 0.06 µg/mL; in test [2], 4 µg/mL (≈ 2.21 µM).

Values taken from patent publication US5843889A, “Glycopeptide antibiotic derivatives” (Eli Lilly and Company, priority 1997, dated 1998).
